Source: publication PMC8406311, “Change in Cofactor Specificity of Oxidoreductases by Adaptive Evolution of an Escherichia coli NADPH-Auxotrophic Strain” (mBio, 2021)
Where a chain is given by its changes, count along the chain named.

What was measured:
Format in all cases: biochemical
[1] = target: T1, MaeA (NAD+-dependent malic enzyme) (Escherichia coli, UniProt P26616); assay: NAD(P)H formation at […] nm, Michaelis-Menten fit; settings: 50 mM Tris HCl pH 7.5, 10 mM MgCl2, 30 °C, apparent
T1 construct: N-terminal His-tag (modified pET22b(+)), expressed in E. coli BL21(DE3), HisTrap purified
T1 sequence (P26616 1-565): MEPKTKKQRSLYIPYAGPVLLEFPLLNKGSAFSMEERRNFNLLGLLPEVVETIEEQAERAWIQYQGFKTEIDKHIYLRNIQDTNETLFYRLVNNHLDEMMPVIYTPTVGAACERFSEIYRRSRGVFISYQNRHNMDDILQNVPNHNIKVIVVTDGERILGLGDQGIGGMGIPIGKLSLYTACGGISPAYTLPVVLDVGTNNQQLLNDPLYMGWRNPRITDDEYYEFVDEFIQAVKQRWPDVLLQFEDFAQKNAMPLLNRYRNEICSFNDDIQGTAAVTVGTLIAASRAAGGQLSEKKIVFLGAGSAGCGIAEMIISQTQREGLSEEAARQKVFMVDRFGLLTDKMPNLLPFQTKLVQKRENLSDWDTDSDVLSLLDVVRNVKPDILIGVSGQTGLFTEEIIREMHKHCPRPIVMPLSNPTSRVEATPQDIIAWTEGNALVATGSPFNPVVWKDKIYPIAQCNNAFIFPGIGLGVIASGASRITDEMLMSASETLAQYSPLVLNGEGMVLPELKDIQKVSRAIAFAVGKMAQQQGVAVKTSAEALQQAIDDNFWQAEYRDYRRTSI

[2] = target: T2, Lpd (dihydrolipoamide dehydrogenase; lipoamide dehydrogenase) (Escherichia coli, UniProt P0A9P0); assay: NAD(P)H formation at […] nm, nonlinear fit of initial rates; settings: 100 mM Na phosphate, 100 mM KCl, 8 mM TCEP, pH 7.6, room temperature, apparent
T2 construct: gene lpdA; N-terminal His-tag (modified pET22b(+)), expressed in E. coli BL21(DE3) Codon+, HisTrap and gel filtration

[3] = target: T3, MaeA (NAD+-dependent malic enzyme) (Escherichia coli, UniProt P26616, D336N); assay: NAD(P)H formation at […] nm, Michaelis-Menten fit; settings: 50 mM Tris HCl pH 7.5, 10 mM MgCl2, 30 °C; L-malate at 6 to 10 times its KM; apparent
T3 construct: N-terminal His-tag (modified pET22b(+)), expressed in E. coli BL21(DE3), HisTrap purified
T3 sequence (P26616 1-565 D336N): T1 sequence (P26616 1-565) with D336N

[4] = target: T4, MaeA (NAD+-dependent malic enzyme) (Escherichia coli, UniProt P26616, I283N/D336A); assay: NAD(P)H formation at […] nm, Michaelis-Menten fit; settings: 50 mM Tris HCl pH 7.5, 10 mM MgCl2, 30 °C; L-malate at 6 to 10 times its KM; apparent
T4 construct: N-terminal His-tag (modified pET22b(+)), expressed in E. coli BL21(DE3), HisTrap purified
T4 sequence (P26616 1-565 I283N/D336A): T1 sequence (P26616 1-565) with I283N, D336A

[5] = target: T5, Lpd (dihydrolipoamide dehydrogenase; lipoamide dehydrogenase) (Escherichia coli, UniProt P0A9P0, E205A); assay: NAD(P)H formation at […] nm, nonlinear fit of initial rates; settings: 100 mM Na phosphate, 100 mM KCl, 8 mM TCEP, pH 7.6, room temperature; 4 mM dihydrolipoamide; apparent
T5 construct: gene lpdA; N-terminal His-tag (modified pET22b(+)), expressed in E. coli BL21(DE3) Codon+, HisTrap and gel filtration

[6] = target: T6, Lpd (dihydrolipoamide dehydrogenase; lipoamide dehydrogenase) (Escherichia coli, UniProt P0A9P0, E205G); assay: as above; settings: 100 mM Na phosphate, 100 mM KCl, 8 mM TCEP, pH 7.6, room temperature; 4 mM dihydrolipoamide; apparent
T6 construct: gene lpdA; N-terminal His-tag (modified pET22b(+)), expressed in E. coli BL21(DE3) Codon+, HisTrap and gel filtration

[7] = target: T7, MaeA (NAD+-dependent malic enzyme) (Escherichia coli, UniProt P26616, L176V/D336N); assay: NAD(P)H formation at […] nm, Michaelis-Menten fit; settings: 50 mM Tris HCl pH 7.5, 10 mM MgCl2, 30 °C; L-malate at 6 to 10 times its KM; apparent
T7 construct: N-terminal His-tag (modified pET22b(+)), expressed in E. coli BL21(DE3), HisTrap purified
T7 sequence (P26616 1-565 L176V/D336N): T1 sequence (P26616 1-565) with L176V, D336N

[8] = L-malate at 6 to 10 times its KM

T5 sequence (P0A9P0 2-474 E205A): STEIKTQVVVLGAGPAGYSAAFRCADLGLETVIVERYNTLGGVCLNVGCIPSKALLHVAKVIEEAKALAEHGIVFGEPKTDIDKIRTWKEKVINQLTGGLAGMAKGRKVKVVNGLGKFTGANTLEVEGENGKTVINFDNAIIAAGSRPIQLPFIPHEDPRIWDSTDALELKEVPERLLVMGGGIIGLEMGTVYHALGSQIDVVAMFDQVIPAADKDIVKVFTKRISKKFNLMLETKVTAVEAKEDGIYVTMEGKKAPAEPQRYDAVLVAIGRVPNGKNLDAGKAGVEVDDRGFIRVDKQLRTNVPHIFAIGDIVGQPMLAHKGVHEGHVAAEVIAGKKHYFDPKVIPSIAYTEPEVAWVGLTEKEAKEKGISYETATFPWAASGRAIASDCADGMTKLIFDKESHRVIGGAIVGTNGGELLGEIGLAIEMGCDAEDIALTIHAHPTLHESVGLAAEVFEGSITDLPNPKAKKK
T6 sequence (P0A9P0 2-474 E205G): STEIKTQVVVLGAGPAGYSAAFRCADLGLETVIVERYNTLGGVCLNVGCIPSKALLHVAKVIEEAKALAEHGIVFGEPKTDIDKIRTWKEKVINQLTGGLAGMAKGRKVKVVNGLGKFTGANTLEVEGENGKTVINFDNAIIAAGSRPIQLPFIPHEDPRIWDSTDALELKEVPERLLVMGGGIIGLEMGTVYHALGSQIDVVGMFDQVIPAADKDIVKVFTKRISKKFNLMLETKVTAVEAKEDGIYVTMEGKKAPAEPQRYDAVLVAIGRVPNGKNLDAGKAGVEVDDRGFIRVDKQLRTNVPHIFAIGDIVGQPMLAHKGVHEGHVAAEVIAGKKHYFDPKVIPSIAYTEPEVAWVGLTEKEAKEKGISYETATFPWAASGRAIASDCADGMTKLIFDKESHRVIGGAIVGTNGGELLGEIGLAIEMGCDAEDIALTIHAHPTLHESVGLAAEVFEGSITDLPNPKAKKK
T2 sequence (P0A9P0 2-474): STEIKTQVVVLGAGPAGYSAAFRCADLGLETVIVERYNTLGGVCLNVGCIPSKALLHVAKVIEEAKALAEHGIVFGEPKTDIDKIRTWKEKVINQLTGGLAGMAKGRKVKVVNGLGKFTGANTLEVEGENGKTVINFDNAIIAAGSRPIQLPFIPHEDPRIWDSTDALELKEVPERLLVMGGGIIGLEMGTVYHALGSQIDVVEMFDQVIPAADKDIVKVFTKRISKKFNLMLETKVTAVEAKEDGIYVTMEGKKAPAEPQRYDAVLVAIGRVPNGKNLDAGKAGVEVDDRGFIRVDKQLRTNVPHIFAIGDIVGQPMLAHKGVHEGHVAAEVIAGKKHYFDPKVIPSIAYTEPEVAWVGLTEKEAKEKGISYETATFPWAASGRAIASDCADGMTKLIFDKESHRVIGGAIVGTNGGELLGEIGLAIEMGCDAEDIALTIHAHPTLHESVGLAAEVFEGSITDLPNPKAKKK

Row | Structure (SMILES) | Km ([1]; other substrates at 6 to 10 times their KM) [µM] | Km ([2]; 4 mM dihydrolipoamide) [µM] | Km [3] [µM] | Km [4] [µM] | Km [5] [µM] | Km [1, 8] [µM] | Km [6] [µM] | Km [7] [µM] | Km [2] [µM]
1 | O=C(O)C[C@H](O)C(=O)O [L-malate] | 630 ± 40 |  |  |  |  |  |  |  | 
2 | NC(=O)c1ccc[n+]([C@@H]2O[C@H](COP(=O)(O)OP(=O)(O)OC[C@H]3O[C@@H](n4cnc5c(N)ncnc54)[C@H](O)[C@@H]3O)[C@@H](O)[C@H]2O)c1 [NAD^+] |  | 440 ± 60 | 1500 ± 200 | 270 ± 30 | 6350 ± 380 | 100 ± 20 | 9490 ± 1820 | 270 ± 30 | 
3 | NC(=O)c1ccc[n+]([C@@H]2O[C@H](COP(=O)(O)OP(=O)(O)OC[C@H]3O[C@@H](n4cnc5c(N)ncnc54)[C@H](OP(=O)(O)O)[C@@H]3O)[C@@H](O)[C@H]2O)c1 [NADP^+] |  |  | 91 ± 10 | 13 | 2480 ± 690 | 3600 ± 400 | 3480 ± 1030 | 16 ± 1 | 
4 | NC(=O)CCCC[C@@H](S)CCS [dihydrolipoamide] |  |  |  |  |  |  |  |  | 180 ± 20
